The supplement of paper PMC8612539
≈ marks a conversion by molar mass, not a printed value.

Test system: Pasteurella multocida
Experiment: minimum inhibitory concentration (MIC)
Method: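 Broth microdilution MIC (Sensititre BOPO7F bovine plate, CLSI methods) of 19 antimicrobials against field isolates of P. multocida, M. haemolytica, H. somni (deep nasopharyngeal swabs) and E. coli, Enterococcus spp. (rectal swabs) from weaned dairy heifers. Incubation 16-24 h at 35 C. MIC is the lowest concentration preventing visible growth. Values with <= or > lie at the tested range limits. Trimethoprim-sulfamethoxazole is given as the trimethoprim component of a 1:19 mixture.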

CN(C)[C@@H]1C(O)=C(C(N)=O)C(=O)[C@@]2(O)C(O)=C3C(=O)c4c(O)cccc4[C@@](C)(O)[C@H]3C[C@@H]12 [Tetracycline]
Settings	minimum inhibitory concentration [µg/mL]
isolate (source animal id): 10	> 8
isolate (source animal id): 11	> 8
isolate (source animal id): 12	> 8
isolate (source animal id): 19	> 8
isolate (source animal id): 23	> 8
isolate (source animal id): 26	> 8
isolate (source animal id): 98	> 8
isolate (source animal id): 104	> 8
isolate (source animal id): 115	> 8
isolate (source animal id): 117	> 8
isolate (source animal id): 118	> 8
isolate (source animal id): 121	> 8
isolate (source animal id): 124	> 8
isolate (source animal id): 125	> 8
isolate (source animal id): 128	> 8
isolate (source animal id): 131	> 8
isolate (source animal id): 135	> 8
isolate (source animal id): 136	> 8
isolate (source animal id): 140	> 8
isolate (source animal id): 144	> 8
isolate (source animal id): 146	> 8
isolate (source animal id): 150	> 8
isolate (source animal id): 151	> 8
isolate (source animal id): 153	> 8
isolate (source animal id): 155	> 8
isolate (source animal id): 157	> 8
isolate (source animal id): 160	> 8
isolate (source animal id): 164	> 8
isolate (source animal id): 165	> 8
isolate (source animal id): 167	> 8
isolate (source animal id): 168	> 8
isolate (source animal id): 169	4 (≈ 9 µM)
isolate (source animal id): 170	8 (≈ 18 µM)
isolate (source animal id): 171	8 (≈ 18 µM)
isolate (source animal id): 172	> 8
isolate (source animal id): 173	> 8
isolate (source animal id): 174	> 8
isolate (source animal id): 175	> 8
isolate (source animal id): 176	> 8
isolate (source animal id): 177	> 8
isolate (source animal id): 178	> 8
isolate (source animal id): 179	8 (≈ 18 µM)
isolate (source animal id): 182	> 8
isolate (source animal id): 192	> 8
isolate (source animal id): 193	> 8
isolate (source animal id): 195	> 8
isolate (source animal id): 196	> 8
isolate (source animal id): 197	> 8
isolate (source animal id): 198	> 8
isolate (source animal id): 199	8 (≈ 18 µM)
isolate (source animal id): 200	8 (≈ 18 µM)
isolate (source animal id): 201	8 (≈ 18 µM)
isolate (source animal id): 203	> 8
isolate (source animal id): 204	> 8
isolate (source animal id): 205	> 8
isolate (source animal id): 206	> 8
isolate (source animal id): 207	> 8
isolate (source animal id): 208	8 (≈ 18 µM)
isolate (source animal id): 209	> 8
isolate (source animal id): 210	> 8
isolate (source animal id): 213	8 (≈ 18 µM)
isolate (source animal id): 216	8 (≈ 18 µM)
isolate (source animal id): 223	> 8
isolate (source animal id): 227	> 8
isolate (source animal id): 229	> 8
isolate (source animal id): 233	> 8
isolate (source animal id): 234	> 8
isolate (source animal id): 237	> 8
isolate (source animal id): 241	> 8
isolate (source animal id): 245	> 8
isolate (source animal id): 247	> 8
isolate (source animal id): 250	> 8
isolate (source animal id): 254	> 8
isolate (source animal id): 255	> 8
isolate (source animal id): 258	> 8
isolate (source animal id): 261	> 8
isolate (source animal id): 262	> 8
isolate (source animal id): 269	8 (≈ 18 µM)
isolate (source animal id): 270	> 8
isolate (source animal id): 274	> 8
isolate (source animal id): 275	> 8
isolate (source animal id): 276	> 8
isolate (source animal id): 277	8 (≈ 18 µM)
isolate (source animal id): 278	> 8
isolate (source animal id): 279	> 8
isolate (source animal id): 280	> 8
isolate (source animal id): 284	> 8
isolate (source animal id): 285	> 8
isolate (source animal id): 287	> 8
isolate (source animal id): 290	> 8
isolate (source animal id): 294	> 8
isolate (source animal id): 295	> 8
isolate (source animal id): 296	> 8
isolate (source animal id): 307	> 8
isolate (source animal id): 310	> 8
isolate (source animal id): 311	> 8
isolate (source animal id): 312	> 8
isolate (source animal id): 313	> 8
isolate (source animal id): 315	> 8
isolate (source animal id): 316	> 8

CC[C@H]1OC(=O)C[C@@H](O)[C@H](C)[C@@H](O[C@@H]2O[C@H](C)[C@@H](O)[C@H](N(C)C)[C@H]2O)[C@@H](CCN2CCCCC2)C[C@@H](C)C(=O)/C=C/C(C)=C/[C@@H]1CN1CCCCC1 [Tildipirosin]
Settings	minimum inhibitory concentration [µg/mL]
isolate (source animal id): 10	> 16
isolate (source animal id): 11	> 16
isolate (source animal id): 12	> 16
isolate (source animal id): 19	> 16
isolate (source animal id): 23	> 16
isolate (source animal id): 26	> 16
isolate (source animal id): 98	> 16
isolate (source animal id): 104	> 16
isolate (source animal id): 115	> 16
isolate (source animal id): 117	> 16
isolate (source animal id): 118	> 16
isolate (source animal id): 121	> 16
isolate (source animal id): 124	> 16
isolate (source animal id): 125	> 16
isolate (source animal id): 128	> 16
isolate (source animal id): 131	> 16
isolate (source animal id): 135	> 16
isolate (source animal id): 136	> 16
isolate (source animal id): 140	> 16
isolate (source animal id): 144	> 16
isolate (source animal id): 146	> 16
isolate (source animal id): 150	> 16
isolate (source animal id): 151	> 16
isolate (source animal id): 153	> 16
isolate (source animal id): 155	> 16
isolate (source animal id): 157	> 16
isolate (source animal id): 160	> 16
isolate (source animal id): 164	> 16
isolate (source animal id): 165	> 16
isolate (source animal id): 167	≤ 1
isolate (source animal id): 168	> 16
isolate (source animal id): 169	≤ 1
isolate (source animal id): 170	2 (≈ 2.72 µM)
isolate (source animal id): 171	≤ 1
isolate (source animal id): 172	≤ 1
isolate (source animal id): 173	> 16
isolate (source animal id): 174	≤ 1
isolate (source animal id): 175	≤ 1
isolate (source animal id): 176	≤ 1
isolate (source animal id): 177	≤ 1
isolate (source animal id): 178	≤ 1
isolate (source animal id): 179	≤ 1
isolate (source animal id): 182	2 (≈ 2.72 µM)
isolate (source animal id): 192	≤ 1
isolate (source animal id): 193	≤ 1
isolate (source animal id): 195	≤ 1
isolate (source animal id): 196	≤ 1
isolate (source animal id): 197	2 (≈ 2.72 µM)
isolate (source animal id): 198	> 16
isolate (source animal id): 199	≤ 1
isolate (source animal id): 200	≤ 1
isolate (source animal id): 201	≤ 1
isolate (source animal id): 203	≤ 1
isolate (source animal id): 204	≤ 1
isolate (source animal id): 205	> 16
isolate (source animal id): 206	≤ 1
isolate (source animal id): 207	≤ 1
isolate (source animal id): 208	≤ 1
isolate (source animal id): 209	≤ 1
isolate (source animal id): 210	> 16
isolate (source animal id): 213	2 (≈ 2.72 µM)
isolate (source animal id): 216	≤ 1
isolate (source animal id): 223	> 16
isolate (source animal id): 227	≤ 1
isolate (source animal id): 229	> 16
isolate (source animal id): 233	> 16
isolate (source animal id): 234	> 16
isolate (source animal id): 237	> 16
isolate (source animal id): 241	> 16
isolate (source animal id): 245	> 16
isolate (source animal id): 247	> 16
isolate (source animal id): 250	> 16
isolate (source animal id): 254	> 16
isolate (source animal id): 255	> 16
isolate (source animal id): 258	≤ 1
isolate (source animal id): 261	> 16
isolate (source animal id): 262	> 16
isolate (source animal id): 269	≤ 1
isolate (source animal id): 270	> 16
isolate (source animal id): 274	> 16
isolate (source animal id): 275	> 16
isolate (source animal id): 276	> 16
isolate (source animal id): 277	≤ 1
isolate (source animal id): 278	> 16
isolate (source animal id): 279	> 16
isolate (source animal id): 280	> 16
isolate (source animal id): 284	> 16
isolate (source animal id): 285	> 16
isolate (source animal id): 287	> 16
isolate (source animal id): 290	> 16
isolate (source animal id): 294	> 16
isolate (source animal id): 295	> 16
isolate (source animal id): 296	> 16
isolate (source animal id): 307	> 16
isolate (source animal id): 310	> 16
isolate (source animal id): 311	> 16
isolate (source animal id): 312	> 16
isolate (source animal id): 313	> 16
isolate (source animal id): 315	> 16
isolate (source animal id): 316	> 16
